Data on three compounds can be found in article PMC8540642, “Antineoplastic Activity of Rhus trilobata Nutt. (Anacardiaceae) against Ovarian Cancer and Identification of Active Metabolites in This Pathology” (Plants, 2021).

≈ marks a conversion by molar mass, not a printed value. Read-outs that look alike come from different tables or passages of the source.

In assay [1] the test system is MCF-7. Further details: method as in PMID 12781329, PMID 18790750. Conditions: MCF-7, 50 μM, G1 phase; cited from earlier work.
For assay [2], the system named is SKOV-3 cells. Nature of the assay: MTT cell viability, dose-response curves 24 h. In kind it is cell-based, human. Conditions: Homo sapiens, SK-OV-3, MTT, 24 h, read-out: IC50 (half-maximal inhibitory concentration), SKOV-3. As for the experimental part:
(§1) Cultures (2 × 10^4 cells/well) were seeded with 200 μL of supplemented medium (Sigma®) in 96-well plates (Corning®, Corning, NY, USA) and incubated for 24 h. Cell treatments were 5-200 μg/mL of samples/controls for 24 h. At the end of the treatments, we added MTT (5 mg/mL, Sigma®) for 4 h of incubation, and optical density was measured at λ = 590 nm in a VariosKan® Flash (Thermo-Scientific®, Waltham, MA, USA). The half-maximal inhibitory concentration (IC50) was determined.

Assay [3] relates to KB cell. Also noted: method as in PMID 4437313. Conditions: Ga isolated from RHTR leaves; cited from earlier work.
Assay [4] has as its system CHO-K1 cells. Description: MTT cell viability, dose-response curves 24 h. In kind it is cell-based. Conditions: MTT, 24 h; for IC50: Cricetulus griseus, CHO-K1, 24 h, read-out: IC50 (half-maximal inhibitory concentration), CHO-K1. As for the experimental part: as §1
Assay [5] concerns OVCAR-3 cells. Nature of the assay: MTT cell viability, dose-response curves 24 h. In kind it is cell-based. Conditions: Homo sapiens, OVCAR-3, MTT, 24 h, read-out: IC50 (half-maximal inhibitory concentration), OVCAR-3. As for the experimental part: as §1
The test system of assay [6] is BEAS-2B cells. Nature of the assay: MTT cell viability, dose-response curves 24 h. Conditions: MTT; for IC50: Homo sapiens, BEAS-2B, read-out: IC50 (half-maximal inhibitory concentration), BEAS-2B. In kind it is cell-based. The method, then:
as §1

The test system of assay [7] is CACO-2 cells. Nature of the assay: MTT cell viability, dose-response curves 24 h. It is filed as cell-based. Conditions: Homo sapiens, Caco-2, MTT, 24 h, read-out: IC50 (half-maximal inhibitory concentration), CACO-2. As for the experimental part: as §1
Assay [8] has as its system ovarian cancer tumoral lesions. Further details: method as in PMID 32276584. Conditions: 50 mg/kg, peritumoral route; cited from earlier work.
In assay [9] the test system is SKOV-3 cells. Nature of the assay: Apoptosis (ApoTox-Glo Triplex caspase-3/7, ApoAlert DNA fragmentation/TUNEL). It is filed as cell-based, human. Conditions: 24 h, vehicle group 2.47% ± 0.4%. As for the experimental part:
Cells (2 × 10^4/per well) were cultivated in 96-well black plates (Corning®, Corning, NY, USA) with 100 μL of supplemented medium (Sigma®, St. Louis, MO, USA) and incubated for 24 h. Treatments on adherent cells were conducted at 5-20 μg/mL of samples/controls for 24 h. Then, ApoTox-Glo™ Triplex Assay (Promega®, Madison, WI, USA) was used to determine events of viability (proliferation), cytotoxicity (necrosis), and apoptosis (caspase-3/7 activation). Additionally, apoptosis was confirmed by an ApoAlert™ DNA Fragmentation Assay (Clontech®, Kusatsu, Shiga, J.P.). Both assays were performed according to each manufacturer’s instructions. Finally, optical density was measured in a VariosKan® Flash (Thermo-Scientific®, Waltham, MA, USA).

Take `O=C(OC[C@H]1O[C@@H](OC(=O)c2cc(O)c(O)c(O)c2)[C@H](OC(=O)c2cc(O)c(O)c(O)c2)[C@@H](OC(=O)c2cc(O)c(O)c(O)c2)[C@@H]1OC(=O)c1cc(O)c(O)c(O)c1)c1cc(O)c(O)c(O)c1` [Compound 8, 1,2,3,4,6-pentakis-O-galloyl-β-D-glucose]: the cell cycle effect entry in [1] is on record as “cell cycle arrest”.

Take `O=C(O)c1cc(O)c(O)c(O)c1` [Gallic acid, gallic acid]: the IC50 in [2] was 50 µg/mL; in assay [2] (value in brackets), 294 µM; in assay [4], ~150 µg/mL; in assay [4] (value in brackets) it was 588 µM; in [5], 43 µg/mL; in assay [5] (value in brackets), 253 µM. Further, the IC50 was found to be 147 µM in assay [6] (value in brackets), 25 µg/mL in assay [7] and 147 µM in [7] (value in brackets). For the same compound, the “IC50, KB cell viability” value in [3] is 3.1 µg/mL (≈ 18.2 µM). In [4], the “IC50 (half-maximal inhibitory concentration), CHO-K1” value stood at 100 µg/mL (≈ 588 µM). Also, the “IC50 (half-maximal inhibitory concentration), BEAS-2B” value in [6] was 25 µg/mL (≈ 147 µM); in assay [6] (listed as Ga) it was ~ 150 μg/mL. For the same compound, the “inhibition of tumoral lesions (of progression)” value in [8] is 50%.

Turning to `CC(=O)O[C@H]1C(=O)[C@@]2(C)[C@H]([C@H](OC(=O)c3ccccc3)[C@]3(O)C[C@H](OC(=O)[C@H](O)[C@@H](NC(=O)c4ccccc4)c4ccccc4)C(C)=C1C3(C)C)[C@]1(OC(C)=O)CO[C@@H]1C[C@@H]2O` [Paclitaxel, paclitaxel, reference compound], the IC50 in assay [2] was 7 µg/mL; in assay [2] (value in brackets), 8.2 µM; in assay [4], 10 µg/mL; in [4] (value in brackets), 11.7 µM; in assay [5], 8 µg/mL; in [5] (value in brackets) it was 9.37 µM. In addition, the IC50 in [6] is 8 µg/mL; in assay [6] (value in brackets) it was 9.37 µM; in assay [7], 20 µg/mL; in assay [7] (value in brackets) it was 23.4 µM. The “apoptosis: caspase-3/7 activity and nuclear DNA-fragmentation” value in [9] was 46.42% ± 5.0%.
